pIC50: −log10 of the molar value.
Columns and labels:
MMP-3 (stromelysin) = MMP-3 (stromelysin) (Homo sapiens, UniProt P08254); test: biochemical; format: biochemical; conditions: read-out: IC50 MMP3
Method: (§1) The assays measure the amount by which a test compound reduces the hydrolysis of a thiopeptolide substrate caused by a matrix metalloproteinase enzyme.
(§2) Thiopeptolide substrates show virtually no decomposition or hydrolysis in the absence of a matrix metalloproteinase enzyme. A typical thiopeptolide substrate commonly utilized for assays is Ac-Pro-Leu-Gly-thioester-Leu-Leu-Gly-O Et. […] Assays are carried out with and without matrix metalloproteinase inhibitor compounds, and the amount of hydrolysis is compared for a determination of inhibitory activity of the test compounds.

MMP-2 (Gelatinase A) = molecular target: T1, MMP-2 (Gelatinase A) (Homo sapiens, UniProt P08253); test: biochemical; conditions: read-out: IC50 MMP2
T1 sequence (P08253 110-660): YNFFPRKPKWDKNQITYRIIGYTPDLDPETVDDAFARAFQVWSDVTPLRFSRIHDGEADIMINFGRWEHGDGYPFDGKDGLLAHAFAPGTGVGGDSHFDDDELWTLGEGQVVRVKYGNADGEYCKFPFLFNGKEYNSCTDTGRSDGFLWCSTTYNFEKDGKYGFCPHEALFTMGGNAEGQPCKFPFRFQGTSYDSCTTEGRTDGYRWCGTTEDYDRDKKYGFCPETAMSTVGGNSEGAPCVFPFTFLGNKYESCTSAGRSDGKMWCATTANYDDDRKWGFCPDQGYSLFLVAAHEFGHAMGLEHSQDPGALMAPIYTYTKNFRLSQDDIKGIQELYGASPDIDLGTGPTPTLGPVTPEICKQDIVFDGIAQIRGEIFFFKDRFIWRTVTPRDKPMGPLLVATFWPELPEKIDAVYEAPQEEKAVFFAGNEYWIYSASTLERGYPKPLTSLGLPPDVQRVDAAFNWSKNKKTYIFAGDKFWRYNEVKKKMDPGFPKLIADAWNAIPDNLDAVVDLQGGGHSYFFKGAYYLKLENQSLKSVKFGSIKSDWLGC
Method: as §1, §2

MMP-3 (stromelysin), sequence (P08254 100-477): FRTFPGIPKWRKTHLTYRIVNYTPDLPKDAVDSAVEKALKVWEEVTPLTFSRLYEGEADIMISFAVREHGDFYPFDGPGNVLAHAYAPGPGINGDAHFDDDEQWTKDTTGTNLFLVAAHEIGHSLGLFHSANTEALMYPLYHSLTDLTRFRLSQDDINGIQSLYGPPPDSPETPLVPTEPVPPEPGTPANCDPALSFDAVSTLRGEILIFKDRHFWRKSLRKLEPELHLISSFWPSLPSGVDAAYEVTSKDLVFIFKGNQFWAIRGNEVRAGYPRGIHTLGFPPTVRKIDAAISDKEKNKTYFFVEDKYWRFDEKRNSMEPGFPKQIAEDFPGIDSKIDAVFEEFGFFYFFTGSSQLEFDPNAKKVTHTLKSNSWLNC

Compound | pIC50 (MMP-3 (stromelysin)) | pIC50 (MMP-2 (Gelatinase A))
O=C(O)CCC(=NO)c1ccc(-c2ccc(Cl)cc2)cc1 [4-(4'-Chloro-biphenyl-4-yl)-4-hydroxyimino-butyric acid] | 6.92 | –
CC(C)CC(CC(=O)NO)C(=O)N[C@@H](CC(C)C)C(=O)N[C@@H](Cc1ccccc1)C(N)=O (stereo partly shown) [Compound U24522, reference compound] | 7.70 | –
O=C(O)CCC(O)c1ccc(-c2ccc(Cl)cc2)cc1 (racemic) [(±)-4-(4'-Chloro-biphenyl-4-yl)-4-hydroxy-butyric acid] | 6.55 | –
O=C(O)CCC(=NO)c1ccc(-c2ccc(Br)cc2)cc1 [4-(4'-Bromo-biphenyl-4-yl)-4-hydroxyimino-butyric acid] | 6.96 | –
O=C(Cc1ccccc1)N[C@@H](CC(=O)c1ccc2oc3ccccc3c2c1)C(=O)O [(S)-4-Dibenzofuran-2-yl-4-oxo-2-phenylacetylamino-butyric acid] | 6.48 | 7.08
CN(C)N=C(CCC(=O)O)c1ccc(-c2ccc(Cl)cc2)cc1 [4-(4'-Chloro-biphenyl-4-yl)-4-(dimethylhydrazono)-butyric acid] | 6.03 | –

— patent publication US5948780A, “Method for treating and preventing heart failure and ventricular dilatation” (priority 1997, dated 1999)
